Measurements published in US4131681A, “Antiallergic method” (Fujisawa Pharmaceutical Co., Ltd., priority 1977, dated 1978).
Where a name gives a salt, the structure may show the parent alone.

What was measured:
Acute toxicity in mouse = settings: in vivo, 7 days
Experimental: (§1) (6) Acute toxicity in mouse and rat
(§2) Each ten male and female ICR-JCL strain mice and Sprague-Dawley-JCL strain rats were used for each dose.
(§3) Each test compound was given to animals in a form of suspension in 0.5% methyl cellose intraperitoneally, subcutaneously and orally. After administration, the incidence of the death was recorded for successive seven days. LD50 values were calculated by the method of Litchfield-Wilcoxon method.

[1] = system: passive cutaneous anaphylaxis (P.C.A.) reaction; test: Antagonism to passive cutaneous anaphylaxis (P.C.A.) in guinea-pig; assay type: in vivo, guinea-pig (male Hartley); settings: for ED50: Cavia porcellus
Experimental: (b) Guinea-pig antiserum against egg albumin
Five mg of egg albumin emulsified in 0.5 ml of physiological saline and 0.5 ml of Freund's incomplete adjuvant was used as the antigen.
The amulsion was given subcutaneously in a single dose of 1 ml divided equally (0.25 ml) to the four foot pads of male Hartley strain guinea pigs, each weighing 250 to 300 g. Starting two weeks after dosing with the aforementioned emulsion, 0.1% egg albumin emulsified in physiological saline was given subcutaneously in equally divided (0.1 ml) doses of 0.4 ml once a week for 4 weeks to four sites on the backs of the test animals. Blood samples were collected from the carotid artery one week after the last injection, and centrifuged at 3000 r.p.m. at room temperature for 15 minutes. The antisera thus obtained were stored at -20° C.
(3) Antagonism to passive cutaneous anaphylaxis (P.C.A) in guinea-pig
Ten male Hartley strain guinea-pigs, weighing 300-350 g, were used for each dose. The animals were sensitized with 0.1 ml of the guinea-pig antiserum against egg albumin injected intracutaneously on the depilated backs of the animals. Four hours after injection of the antiserum, 1 ml of mixture of egg albumin […] and Evan's blue […] in physiological saline was injected intravenously. Thirty minutes after the injection of the antigen, the animals were sacrificed and the skin was removed. Each test compound was given orally 2 hours and intravenously 5 minutes before administration of the antigen. Each sensitized area of the skin was treated substantially in the same manner as that of the above mentioned test (2) to calculate ED50 value.

Acute toxicity in rat = settings: in vivo, 7 days
Experimental: as §1, §2, §3

[2] = system: Bradykinin-induced bronchoconstruction; test: Antagonism to Bradykinin-induced bronchoconstruction in guinea-pigs; assay type: in vivo, guinea-pig (male Hartley); settings: for Inhibitory effect of Bradykinin-induced bronchoconstruction in guinea-pig: 30 seconds before Bradykinin; for ED50: Cavia porcellus, iv, 30 seconds before Bradykinin 16 mg/kg i.v., Litchfield-Wilcoxon
Experimental: (5) Antagonism to Bradykinin-induced bronchoconstruction in guinea-pigs
Ten male Hartley strain guinea-pigs were used for each dose. The animals were immobilized with an intraperitoneal dose of 100 mg/kg of gallamine. The trachea was cannulated and the lungs were dilated with air by a respiration pump at the rate of 3 ml/time and 60.2 times/minute. Bradykinin 16 mg/kg was given intravenously and bronchoconstruction induced thereby was measured by Tanbule Strain gauge according to Konzett-Rossler method. The inhibitory effect against bronchoconstruction was determined in comparison with the control group and the treated group, and the ED50 value was measured according to Litchfield-Wilcoxon method. Each test compound was given intravenously 30 seconds before administration of the Bradykinin.

[3] = system: passive cutaneous anaphylaxis (P.C.A.) reaction; test: Antagonism to passive cutaneous anaphylaxis (P.C.A.) in rat; assay type: in vivo, rat (male Sprague-Dawley-JCL); settings: for ED50: Rattus norvegicus
Experimental: (1) Preparation of antiserum
(a) Rat reaginic antiserum against egg albumin
One mg of egg albumin emulsified in 0.5 ml of B. pertussisdiphtheria mixed vaccine (Tanabe Seiyaku Company Ltd.) and 0.5 ml of Freund's incomplete adjuvant (Difco) was used as the antigen. The emulsion was given subcutaneously in a single dose of 1 ml divided equally (0.25 ml) to the four foot pads of male Sprague-Dawley JCL strain rats aged 6 weeks, each weighing 170-220 g. Blood samples were collected from the femoral artery 12 days after injection, and centifuged at 3000 r.p.m. at 4° C. for 15 minutes. The antisera thus obtained were stored at -20° C.
(2) antagonism to passive cutaneous anaphylaxis (P.C.A.) in rat
Ten male Sprague-Dawley-JCL strain rats, weighing 290-310 g, were used for each dose. The rat reaginic antiserum against egg albumin was used at a dilution 1:4. The animals were sensitized with 0.1 ml of the antiserum injected intracutaneously on the depilated backs of the rats. Fortyeight hours after the injection of the antiserum, 1 ml of mixture of egg albumin 5 mg and Evans' blue 5 mg in physiological saline 1 ml was injected intravenously. Thirty minutes after the injection of the antigen, animals were sacrificed and the skin was removed. To each sensitized area of the skin was added 10 ml of a 4:1 mixture of acetone and 2% solution of RBS-25 (Marumoto Industrial Co., Ltd.) to extract the dye and the mixture was allowed to stand for 16 hours, during of which the mixture was twice shaken for 30 minutes at 5th hour and 16th hour. It was further centrifuged at 2,000 r.p.m. for 15 minutes and the quantity of the dye in the supernatant solution was determined by colorimetry at […]. Each test compound was given orally 2 hours and intravenously 5 minutes before administration of the antigen. The inhibitory effect of each test compound was determined from the dye amounts measured in comparison with the control group and the treated group and the ED50 value was calculated according to Litchfield-Wilcoxon method.

anaphylactic asthma = test: Antagonism to anaphylactic asthma in guinea-pigs; assay type: in vivo, guinea-pig (male Hartley); settings: for Inhibitory effect of anaphylactic asthma in guinea-pig: survival more than 2 hours after antigen spray
[4] = i.v., 4 mg/kg, 5 minutes before antigen
[5] = i.v., 16 mg/kg, 5 minutes before antigen
[6] = i.v., 64 mg/kg, 5 minutes before antigen
[7] = p.o., 32 mg/kg, 2 hours before antigen
[8] = p.o., 125 mg/kg, 2 hours before antigen
[9] = iv, 5 min, i.v., 5 minutes before antigen, Litchfield-Wilcoxon
[10] = p.o., 500 mg/kg, 2 hours before antigen
[11] = iv, 5 min, i.v., 5 minutes before antigen

With `O=C(O)c1cc(=O)c2c(OCC(O)COc3cccc4oc(C(=O)O)cc(=O)c34)cccc2o1` [Compound C, disodium chromoglycate] the LD50 at 168 h (Acute toxicity in mouse; po, female) was over 11000 mg/kg, the LD50 at 168 h (Acute toxicity in mouse; po, male) was over 11000 mg/kg and the “Inhibitory effect of P.C.A. reaction in guinea-pig” value [1, 4] was 11.4%. The “Inhibitory effect of P.C.A. reaction in guinea-pig” value [1, 5] was 18.4%, the “Inhibitory effect of P.C.A. reaction in guinea-pig” value [1, 6] was -2.2% and the “Inhibitory effect of P.C.A. reaction in guinea-pig” value [1, 7] was -25.4%. For the same compound, the “Inhibitory effect of P.C.A. reaction in guinea-pig” value [1, 8] was 24.6%, the LD50 at 168 h (Acute toxicity in rat; po, female) was over 11000 mg/kg and the LD50 at 168 h (Acute toxicity in rat; po, male) was over 11000 mg/kg. The “Inhibitory effect of Bradykinin-induced bronchoconstruction in guinea-pig” value ([2]; 1 mg/kg i.v.) was 12%, the “Inhibitory effect of Bradykinin-induced bronchoconstruction in guinea-pig” value ([2]; 4 mg/kg i.v.) was 28% and the “Inhibitory effect of Bradykinin-induced bronchoconstruction in guinea-pig” value ([2]; 16 mg/kg i.v.) was 24%. The ED50 [2] was over 16 mg/kg, the ED50 [3, 9] was 73.2 mg/kg and the “Inhibitory effect of P.C.A. reaction in rat” value [3, 4] was 24.1%. For the same compound, the “Inhibitory effect of P.C.A. reaction in rat” value [3, 5] was 55.6%, the “Inhibitory effect of P.C.A. reaction in rat” value [3, 6] was 41.4% and the “Inhibitory effect of P.C.A. reaction in rat” value [3, 7] was -16.1%. For the same compound, the “Inhibitory effect of P.C.A. reaction in rat” value [3, 10] was 9.4%, the “ED50 (P.C.A. reaction in rat)” value ([3]; p.o., 2 hours before antigen, Litchfield-Wilcoxon) was “No effect” and the “Inhibitory effect of anaphylactic asthma in guinea-pig” value (anaphylactic asthma; 4 mg/kg i.v.) was 0%. For the same compound, the “Inhibitory effect of anaphylactic asthma in guinea-pig” value (anaphylactic asthma; 16 mg/kg i.v.) was 0%, the “Inhibitory effect of anaphylactic asthma in guinea-pig” value (anaphylactic asthma; 64 mg/kg i.v.) was 10% and the “ED50 (dose required for 50% protection from death)” value (anaphylactic asthma; i.v., anaphylactic asthma, Litchfield-Wilcoxon) was “No effect”.

With `O=C(Cn1c(=O)sc2ccc(Cl)cc21)N1CCC(O)CC1` [Compound A, 3-(4-hydroxypiperidino)carbonylmethyl-5-chloro-2-benzothiazolinone] the LD50 at 168 h (Acute toxicity in mouse; ip, female) was over 8000 mg/kg, the LD50 at 168 h (Acute toxicity in mouse; ip, male) was over 8000 mg/kg and the LD50 at 168 h (Acute toxicity in mouse; po, female) was over 8000 mg/kg. For the same compound, the LD50 at 168 h (Acute toxicity in mouse; po, male) was over 8000 mg/kg, the LD50 at 168 h (Acute toxicity in mouse; sc, female) was over 8000 mg/kg and the LD50 at 168 h (Acute toxicity in mouse; sc, male) was over 8000 mg/kg. The ED50 [1, 11] was 29.1 mg/kg, the ED50 ([1]; po, 2 hours before antigen) was 202 mg/kg and the “Inhibitory effect of P.C.A. reaction in guinea-pig” value [1, 4] was 15.5%. For the same compound, the “Inhibitory effect of P.C.A. reaction in guinea-pig” value [1, 5] was 32.9%, the “Inhibitory effect of P.C.A. reaction in guinea-pig” value [1, 6] was 68.9% and the “Inhibitory effect of P.C.A. reaction in guinea-pig” value [1, 7] was 33.5%. The “Inhibitory effect of P.C.A. reaction in guinea-pig” value [1, 8] was 31.7%, the “Inhibitory effect of P.C.A. reaction in guinea-pig” value [1, 10] was 67.4% and the LD50 at 168 h (Acute toxicity in rat; ip, female) was 5800 mg/kg. For the same compound, the LD50 at 168 h (Acute toxicity in rat; ip, male) was 7110 mg/kg, the LD50 at 168 h (Acute toxicity in rat; po, female) was over 8000 mg/kg and the LD50 at 168 h (Acute toxicity in rat; po, male) was over 8000 mg/kg. For the same compound, the LD50 at 168 h (Acute toxicity in rat; sc, female) was over 8000 mg/kg, the LD50 at 168 h (Acute toxicity in rat; sc, male) was over 8000 mg/kg and the “Inhibitory effect of Bradykinin-induced bronchoconstruction in guinea-pig” value ([2]; 0.064 mg/kg i.v.) was 12%. The “Inhibitory effect of Bradykinin-induced bronchoconstruction in guinea-pig” value ([2]; 0.25 mg/kg i.v.) was 50%, the “Inhibitory effect of Bradykinin-induced bronchoconstruction in guinea-pig” value ([2]; 1 mg/kg i.v.) was 89% and the “Inhibitory effect of Bradykinin-induced bronchoconstruction in guinea-pig” value ([2]; 4 mg/kg i.v.) was 91%. It also gave an ED50 [2] of 0.278 mg/kg, an ED50 [3, 9] of 56.6 mg/kg and an ED50 ([3]; po, 2 hours before antigen, Litchfield-Wilcoxon) of 348 mg/kg. The “Inhibitory effect of P.C.A. reaction in rat” value [3, 4] was 22.6%, the “Inhibitory effect of P.C.A. reaction in rat” value [3, 5] was 41.5% and the “Inhibitory effect of P.C.A. reaction in rat” value [3, 6] was 49.1%. For the same compound, the “Inhibitory effect of P.C.A. reaction in rat” value [3, 7] was 20.8%, the “Inhibitory effect of P.C.A. reaction in rat” value [3, 8] was 20.8% and the “Inhibitory effect of P.C.A. reaction in rat” value [3, 10] was 62.3%. The “Inhibitory effect of anaphylactic asthma in guinea-pig” value (anaphylactic asthma; 4 mg/kg i.v.) was 0%, the “Inhibitory effect of anaphylactic asthma in guinea-pig” value (anaphylactic asthma; 16 mg/kg i.v.) was 90% and the “Inhibitory effect of anaphylactic asthma in guinea-pig” value (anaphylactic asthma; 64 mg/kg i.v.) was 100%. It also gave an ED50 (anaphylactic asthma; Cavia porcellus, iv, 2 h, i.v., anaphylactic asthma, Litchfield-Wilcoxon, read-out: ED50 (dose required for 50% protection from death)) of about 8.5 mg/kg.

Work on `O=C(Cn1c(=O)sc2ccc(Cl)cc21)N1CCN(CCO)CC1` [Compound D, 3-[4-(2-hydroxyethyl)-1-piperazinylcarbonylmethyl]-5-chloro-2-benzothiazolinone hydrochloride] yielded an LD50 at 168 h (Acute toxicity in mouse; po, female) of 622 mg/kg, an LD50 at 168 h (Acute toxicity in mouse; po, male) of 564 mg/kg and an ED50 [1, 11] of 46.8 mg/kg. For the same compound, the ED50 ([1]; po, 2 hours before antigen) was 594 mg/kg, the “Inhibitory effect of P.C.A. reaction in guinea-pig” value [1, 4] was 7.4% and the “Inhibitory effect of P.C.A. reaction in guinea-pig” value [1, 5] was 19.4%. For the same compound, the “Inhibitory effect of P.C.A. reaction in guinea-pig” value [1, 6] was 60.6%, the “Inhibitory effect of P.C.A. reaction in guinea-pig” value [1, 7] was -8.2% and the “Inhibitory effect of P.C.A. reaction in guinea-pig” value [1, 8] was 6.1%. The “Inhibitory effect of P.C.A. reaction in guinea-pig” value [1, 10] was 43.4%, the LD50 at 168 h (Acute toxicity in rat; po, female) was 3800 mg/kg and the “Inhibitory effect of Bradykinin-induced bronchoconstruction in guinea-pig” value ([2]; 0.064 mg/kg i.v.) was -14%. For the same compound, the “Inhibitory effect of Bradykinin-induced bronchoconstruction in guinea-pig” value ([2]; 0.25 mg/kg i.v.) was 27%, the “Inhibitory effect of Bradykinin-induced bronchoconstruction in guinea-pig” value ([2]; 1 mg/kg i.v.) was 44% and the “Inhibitory effect of Bradykinin-induced bronchoconstruction in guinea-pig” value ([2]; 4 mg/kg i.v.) was 94%. The “Inhibitory effect of Bradykinin-induced bronchoconstruction in guinea-pig” value ([2]; 16 mg/kg i.v.) was 99% and the ED50 [2] was 0.813 mg/kg.
